The text below walks through data of patent US7897765B2, “Therapeutic compounds and uses thereof” (Elixir Pharmaceuticals, Inc., priority 2003, dated 2011).

In the experiment the target is GHS-R (Homo sapiens, UniProt Q92847). In words: cell based assay of GHS-R antagonist/agonist activity. Details: key: A refers to a compound having antagonist activity with Ki<100 nM in a cell based assay; B refers to a compound having agonist activity with EC50<100 nM in a cell based assay; C refers to a compound having antagonist activity of Ki>100 nM and <1500 nM in a cell based assay; D refers to a compound having antagonist activity with Ki, <100 nM and agonist activity with EC50<100 nM in a cell-based assay; E refers to other exemplary compounds. To be noted: GHS-R antagonist Ki and/or agonist EC50 class. Summed up:
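COS-7 cells transfected with GHS-R, labelled with [3H]-myo-inositol, preincubated in 10 mM LiCl buffer pH 7.4, then given compound 45 min at 37 °C; [3H]-IP isolated by anion exchange. Alternatively, CREB-luciferase reporter in transfected HEK293 with 5 h compound exposure. IC50/EC50 by nonlinear regression.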

The structures appear in SMILES notation.

Chain of GHS-R (Q92847 whole entry, species assumed): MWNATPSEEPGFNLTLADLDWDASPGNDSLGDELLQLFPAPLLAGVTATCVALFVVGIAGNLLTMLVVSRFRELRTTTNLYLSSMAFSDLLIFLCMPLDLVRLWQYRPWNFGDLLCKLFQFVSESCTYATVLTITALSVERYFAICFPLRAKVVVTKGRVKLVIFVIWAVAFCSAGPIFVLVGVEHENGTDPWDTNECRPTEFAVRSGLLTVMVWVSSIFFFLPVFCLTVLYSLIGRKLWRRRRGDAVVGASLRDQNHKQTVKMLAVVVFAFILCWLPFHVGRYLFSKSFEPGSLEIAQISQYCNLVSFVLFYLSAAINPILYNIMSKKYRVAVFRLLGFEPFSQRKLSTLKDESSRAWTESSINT

Turning to `CN1CCN(C(=O)N[C@H](COCc2ccccc2)C(=O)N2CCC3(CC2)CN(S(C)(=O)=O)c2ccccc23)CC1` [Compound 93], the Activity result is recorded as “E”.

Turning to `CCN1CCC=C(C(=O)N[C@H](COCc2ccccc2)C(=O)N2CCC3(CC2)CN(S(C)(=O)=O)c2ccccc23)C1.Cl` [Compound 2], the Activity entry was “D (D refers to a compound having antagonist activity with Ki, <100 nM and agonist activity with EC50<100 nM in a cell-based assay)”.

In the case of `CS(=O)(=O)N1CC2(CCN(C(=O)[C@@H](COCc3ccccc3)NS(=O)(=O)CCCNC3CC3)CC2)c2ccccc21` [Compound 157], the Activity entry is on record as “E”.

For the compound `COCC(=O)N1CC2(CCN(C(=O)[C@@H](COCc3ccccc3)NC(=O)OC(C)(C)C)CC2)c2ccccc21` [Compound 57], the Activity entry is “E”.

Take `CCN1CCC(C(=O)N[C@H](COCc2ccccc2)C(=O)N2CCC3(CC2)CN(S(C)(=O)=O)c2ccccc23)CC1` [Compound 27]: the Activity entry was “C (C refers to a compound having antagonist activity of Ki>100 nM and <1500 nM in a cell based assay)”.

Take `CN(C)C1(C(=O)N[C@H](COCc2ccccc2)C(=O)N2CCC3(CC2)CN(S(C)(=O)=O)c2ccccc23)CCCC1` [Compound 119]: the Activity entry is “E”.

With `CS(=O)(=O)N1CC2(CCN(C(=O)[C@@H](COCc3ccccc3)NC(=O)c3ccc(CN)cc3)CC2)c2ccccc21` [Compound 121], the Activity entry is on record as “E”.

In the case of `CC(C)NCCS(=O)(=O)N[C@H](COCc1ccccc1)C(=O)N1CCC2(CC1)CN(S(C)(=O)=O)c1ccccc12` [Compound 146], the Activity result was “C (C refers to a compound having antagonist activity of Ki>100 nM and <1500 nM in a cell based assay)”.

On to `CC(=O)N(C1CCN(C)CC1)[C@H](COCc1ccccc1)C(=O)N1CCC2(CC1)CN(S(C)(=O)=O)c1ccccc12` [Compound 88], for which the Activity result is “E”.

Regarding `C[C@@H](N)C(=O)N[C@H](COCc1ccccc1)C(=O)N1CCC2(CC1)CN(S(C)(=O)=O)c1ccccc12` [Compound 79], the Activity entry is on record as “E”.

`CS(=O)(=O)N1CC2(CCN(C(=O)[C@@H](COCc3ccccc3)NS(=O)(=O)CCN3C4CCCC3CC4)CC2)c2ccccc21` [Compound 151]: the Activity entry is “C (C refers to a compound having antagonist activity of Ki>100 nM and <1500 nM in a cell based assay)”.

On to `CN(C)CC(=O)N[C@H](COCc1ccccc1)C(=O)N1CCC2(CC1)CN(S(C)(=O)=O)c1ccccc12` [Compound 20], for which the Activity result was “C (C refers to a compound having antagonist activity of Ki>100 nM and <1500 nM in a cell based assay)”.

On to `CN1CCC(NC(=O)N2C[C@H](OCc3ccccc3)CC2C(=O)N2CCC3(CC2)CN(S(C)(=O)=O)c2ccccc23)CC1` (stereo partly shown) [Compound 139], for which the Activity entry was “E”.

As for `CC(C)(N)C(=O)N[C@H](COCc1ccccc1)C(=O)N1CCC2(CC1)CN(S(C)(=O)=O)c1ccccc12.CS(=O)(=O)O` [Compound 125], the Activity result is reported as “B (B refers to a compound having agonist activity with EC50<100 nM in a cell based assay)”.

As to `CC(C)(C)OC(=O)N[C@H](COCc1ccccc1)C(=O)N1CCC2(CC1)CN(S(=O)(=O)CC(F)(F)F)c1ccccc12` [Compound 64], the Activity result is “E”.

For `CS(=O)(=O)N1CC2(CCN(C(=O)[C@@H](COCc3ccccc3)NC(=O)NCCO)CC2)c2ccccc21` [Compound 41], the Activity result was “C (C refers to a compound having antagonist activity of Ki>100 nM and <1500 nM in a cell based assay)”.

For `CN(C)CCS(=O)(=O)N[C@H](COCc1ccccc1)C(=O)N1CCC2(CC1)CN(S(C)(=O)=O)c1ccccc12` [Compound 83], the Activity entry is “E”.

On to `CS(=O)(=O)N1CC2(CCN(C(=O)[C@@H](COCc3ccccc3)NC(=O)C3CCNCC3)CC2)c2ccccc21` [Compound 128], for which the Activity result is reported as “B (B refers to a compound having agonist activity with EC50<100 nM in a cell based assay)”.

In the case of `CC(=O)OCC(=O)N[C@H](COCc1ccccc1)C(=O)N1CCC2(CC1)CN(S(C)(=O)=O)c1ccccc12` [Compound 34], the Activity entry was “C (C refers to a compound having antagonist activity of Ki>100 nM and <1500 nM in a cell based assay)”.
